A short description of data set [1]: Solubility of imidazole compounds in purified water, 4% HPCD and 4% HECD. Format: physicochemical. The method, then:
Six sample solutions were prepared as described in Example 1 except as follows. Two groups of three sample solutions each were prepared. […] The solubility of each of the samples was determined as shown in Table 5 and was compared to the solubility of the imidazole in purified water without a solubility enhancer.

For data set [2] the following is noted: cited from earlier work.
Data set [3] can be described thus: Solubilization of metronidazole by HPCD, niacinamide and their combination (visual, 1 week storage). The format is physicochemical. The method, then: HPCD and niacinamide solutions were prepared and the concentrations of each to obtain a stable 1% metronidazole solution at 5° C. were determined as 5% and 3%, respectively. Then various combinations of HPCD and niacinamide concentrations in aqueous solution containing 1% metronidazole were prepared as in Example 1.
In the combination solutions, HPCD concentration was in the range of 0% to 5% and the concentration range of niacinamide was 0% to 3%. The solutions were kept at room temperature and 5° C. for a week to assess the maintenance of the dissolved state.
For solubilization effects of HPCD and niacinamide combinations, the concentrations of HPCD and niacinamide were determined in 1% metronidazole solutions, which were clear with no precipitate. Metronidazole solubility was visually determined after a week storage. In order to evaluate the solubilization capacity of the HPCD and niacinamide combinations, the niacinamide concentration required to make 1.5% metronidazole in 5% HPCD solution was determined by keeping the solution at 5° C. for 1 week.

Data set [4] is described as follows: Solubility of metronidazole in aqueous solutions with different HPCD concentrations, estimated by solution stability. The format is physicochemical. To be noted: 1-day storage at room temperature followed by 1-day storage at 5° C. The method, then: Various solutions of hydroxypropyl-beta-cyclodextrin (HPCD) were prepared by combining a quantity of HPCD in water to yield the desired concentration of HPCD between 1% w/w and 15% w/w. To each HPCD solution, an excess amount of metronidazole was added. The solutions were placed in a shaker bath at about 60° C. for about 2 hours or more. After shaking, the samples were permitted to cool to room temperature and were stored at 5° C. […]
In accordance with the invention, stable aqueous metronidazole at the following concentrations may be obtained with the following concentrations of HPCD as shown in Table 1 and FIG. 1.

The source of these data is patent US6468989B1, “Gel compositions containing metronidazole” (Dow Pharmaceutical Sciences, priority 2000, dated 2002).

Like-named read-outs stand apart in the source and are kept apart here.

Consider `CCC(C)n1ncn(-c2ccc(N3CCN(c4ccc(OCC5COC(Cn6cncn6)(c6ccc(Cl)cc6Cl)O5)cc4)CC3)cc2)c1=O` (stereo not shown) [Itraconazole, itraconazole], for which, in data set [1], the “% w/w solubility” value is recorded as “less than 0.01 % w/w” and the “Increase in solubility versus purified water” value is “not measurable”.

`CC(=O)N1CCN(c2ccc(OCC3COC(Cn4ccnc4)(c4ccc(Cl)cc4Cl)O3)cc2)CC1` (stereo not shown) [Ketoconazole, ketoconazole]: the “% w/w solubility” value in data set [1] is recorded as “less than 0.01 % w/w”; in data set [1] (4% HECD) it was 0.03-0.05 % w/w; in data set [1] (4% HPCD), 0.01-0.03 % w/w.

For the compound `C[C@H]1O[C@@H](O[C@H]2[C@@H](O)C[C@H](O[C@H]3[C@@H](O)C[C@H](O[C@H]4CC[C@@]5(C)[C@H](CC[C@@H]6[C@@H]5C[C@@H](O)[C@]5(C)[C@@H](C7=CC(=O)OC7)CC[C@]65O)C4)O[C@@H]3C)O[C@@H]2C)C[C@H](O)[C@@H]1O` [digoxin], the “Water solubility combined with BCD relative to combined with HPCD” value in data set [2] is recorded as “five times more water soluble”.

Consider `Cc1ncc([N+](=O)[O-])n1CCO` [Metronidazole, 1-(2-hydroxyethyl)-2-methyl-5-nitroimidazole], for which the “Niacinamide concentration that permitted a 1.5% metronidazole solution” value in data set [3] (5% HPCD) turned out to be 6%. Also, the “Time the 1.5% metronidazole solution stayed clear with no precipitate” value in data set [3] (5% HPCD and 6% niacinamide, 5° C.) is reported as 1 week. The “Precipitation of 1.5% metronidazole solution” value in data set [3] (5% HPCD, no niacinamide, room temperature) was “showed a precipitate”. Moreover, the “HPCD concentration required to make a stable 1% metronidazole aqueous solution” value in data set [3] (HPCD alone, 5° C. for 1 week) is reported as 5%. Moreover, the “Precipitation of aqueous solution containing 1% metronidazole” value is recorded as “showed a precipitation formation” in data set [3] (HPCD reduced to 4% or less, 5° C. for 1 week) and “showed a precipitation formation” in data set [3] (niacinamide reduced to 2% or less, 5° C. for 1 week). In addition, the “HPCD concentration giving a stable 1% MTZ solution” value in data set [3] (in combination with 0.5% niacinamide) was found to be 1.0%. In addition, in data set [3] (in combination with 1.0% HPCD), the “Niacinamide concentration giving a stable 1% MTZ solution” value is listed as 0.5%. The “Niacinamide concentration required to make 1% metronidazole aqueous solution” value in data set [3] (niacinamide alone, 5° C. for 1 week) is listed as 3%. In addition, the “Solubility of MTZ” value in data set [4] (0.0 % w/w HPCD) is listed as 0.7 % w/w; in data set [4] (2.0 % w/w HPCD), 1.0 % w/w; in data set [4] (8.0 % w/w HPCD), 1.5 % w/w; in data set [4] (10.0 % w/w HPCD), 2.0 % w/w; in data set [4] (15.0 % w/w HPCD), 2.5 % w/w. Further, the Appearance of solution result in data set [1] (4% HECD and metronidazole solution) is “became yellow”; in data set [1] (4% HPCD and metronidazole solution) it was “remained clear and colorless”.
